Blank lines part the entries; values can stand above or below the compound they belong to.
Experiments:
THLE-5B-3A4 [1] = assay: LC/LC/MS/MS peptide hits of biomarker polypeptides in conditioned media of treated hepatocytes; type: cell-based, human; conditions: 20 hr, concentrations of Table 1
Procedure: Cells were incubated for 20 hr at 37° C.
Following a single thaw in a 1 L cylinder of water at room temperature, the filtered media were concentrated by centrifugal filtration (10 kDa, Pall Gelman Laboratory, Ann Arbor, Mich.). […] After reduction, 500 nmol of iodoacetamide (Sigma) was added to each sample and incubated in the dark at room temperature for an additional 30 min. Finally, samples were diluted four-fold and 20 μg of TPCK-treated porcine trypsin (Promega, Madison, Wis.) was added to each sample prior to incubation for 18 hr at 37° C. Samples were subsequently desalted using separate C18 spin columns (Nest Group, Southboro, Mass.) before injection onto the LC/LC/MS/MS system.
The capillary column was first packed with 10 cm of C18 reversed-phase material (SelfPack Poros 10 R2, ABI, Framingham, Mass.), and this was followed by 5 cm of strong cation exchange material (Poros 20 HS SCX, ABI). A load of 200 μg of digested material, based on the total protein assay, was used for each analysis.
Each analysis included a salt step, followed by buffer wash, then a reversed phase run of increasing organic concentration. Following the completion of each successive reversed phase gradient, the salt concentration was increased, and the cycle was begun again (FIG. 2).
This separation included a 100 min analysis with a gradient of 0-40% Buffer A to B for 0 to 75 min, 40-100% B for 75-85 min, 100-0% B for 85-90 min, and finally a re-equilibration hold at 0% B for 90-100 min. The aforementioned gradients were delivered by a binary pump (1100, Agilent, Wilmington, Del.), which was split 1:200 prior to connection to the capillary column.
The mass spectrometer's capillary temp was set to 200° C., and the spray voltage was set to 2 kV. In survey scan mode, two microscans were used to acquire 9e^7 counts, with a maximum acquisition time of 1000 msec. In MS/MS mode, 3 microscans were used to acquire 2e^7 counts, with a maximum acquisition time of 300 msec. The instrument was set to trigger data dependent fragmentation of the three most intense ions detected during the MS survey scan.
The output file from the […] program was then downloaded to desktop spreadsheet programs for further statistical analysis (Excel, Microsoft, Redmond, Wash.).

THLE-5B-3A4 [2] = system: THLE-5B-3A4
Procedure: When the cells reached confluence, the medium was removed by aspiration, and replaced with 30 ml of serum and transferrin free PMRF-4 medium (SFM) containing either vehicle (0.5% DMSO) or compound in 0.5% DMSO.
Cells were incubated for 20 hr at 37° C. Conditioned media (i.e., media incubated with cells) was collected by decanting, then syringe-filtered through 0.22 μm membrane, and stored at −70° C. before preparation for LC/LC/MS/MS analysis.
Following electrophoresis, the proteins were transferred to PVDF membrane at 30 V for 1 hr. […] Following incubation with an anti-rabbit secondary antibody (1:5000 dilution, Sigma), bands were visualized using an enhanced chemiluminescent detection system (ECL+, Amersham, Piscataway, N.J.) and imaged using a cooled charge-coupled device camera (Fluor S-Max, Bio-Rad, Hercules, Calif.). The signals from the blots were quantified using Quantity One software (Bio-Rad).
Conditioned media samples used to identify the proteins were assayed by blotting to determine presence and relative concentrations of the proteins as a function of each treatment. This was done to verify the accuracy of the mass spectral data (Table 3) and to increase the precision of the quantitative measurements.

[3] = Cytotoxicity in the hepatocyte culture system, inhibition of ATP synthesis (CellTiter-Glo bioluminescence); type: cell-based, human; conditions: human; hepatotoxic drugs were dosed at their IC50 for cytotoxicity, inhibition of ATP synthesis as endpoint; read-out: Concentration (IC50 value for cytotoxicity)
Excerpt: (§1) These immortalized cells are reported to be similar to quiescent normal human hepatocytes. […] The THLE-5 cell line (also named THLE-5B) was previously deposited under the terms and conditions of the Budapest Treaty at the American Type Culture Collection on Apr.
(§2) The cell line THLE-5B-3A4, which expresses the 3A4 isoform of cytochrome P450, was derived by transfection of THLE-5B-c15 with a CMV expression vector comprising a human cDNA coding for the specific P450 isoenzyme and a selection marker, using methods known in the art.
(§3) For the purposes of this study, the non-hepatotoxic drugs were administered at 50 μM (Table 1).

HHA Cells = assay: as above; type: cell-based, human
Excerpt: as §1, §2, §3

[4] = Table 1, 8 treatments of the discovery panel
[5] = Table 2, panel of 20 treatments

peptide hits BMS-PTX-062 (THLE-5B-3A4 [1]): 27
peptide hits BMS-PTX-120 (THLE-5B-3A4 [1]): 44
peptide hits BMS-PTX-225 (THLE-5B-3A4 [1]): 25
peptide hits BMS-PTX-254 (THLE-5B-3A4 [1]): 28
peptide hits BMS-PTX-260 (THLE-5B-3A4 [1]): 24
peptide hits BMS-PTX-265 (THLE-5B-3A4 [1]): 93
peptide hits BMS-PTX-447 (THLE-5B-3A4 [1]): 82
peptide hits BMS-PTX-459 (THLE-5B-3A4 [1]): 31
peptide hits BMS-PTX-607 (THLE-5B-3A4 [1]): 6
peptide hits BMS-PTX-749 (THLE-5B-3A4 [1]): 142
peptide hits BMS-PTX-808 (THLE-5B-3A4 [1]): 14
peptide hits BMS-PTX-837 (THLE-5B-3A4 [1]): 25
peptide hits BMS-PTX-860 (THLE-5B-3A4 [1]): 9
peptide hits BMS-PTX-(29)147 (THLE-5B-3A4 [1]): 239
peptide hits BMS-PTX-(39)147 (THLE-5B-3A4 [1]): 36
Structure (SMILES): CC1(COc2ccc(CC3SC(=O)NC3=O)cc2)CCCCC1 (stereo not shown) [Ciglitazone]
change in levels of BMS-PTX-265 (THLE-5B-3A4 [2]): statistically significant (p<0.05) increase
IC50 [3]: 38 µM
Toxicity in HHA Cells (HHA Cells; [4]): Toxic
Toxicity in HHA Cells (HHA Cells; [5]): Toxic

Structure (SMILES): O=C1CN(/N=C/c2ccc(-c3ccc([N+](=O)[O-])cc3)o2)C(O)=N1 [Dantrolene]
Toxicity in HHA Cells (HHA Cells; [5]): Toxic

Structure (SMILES): O=C(O)Cc1ccccc1Nc1c(Cl)cccc1Cl [Diclofenac]
Toxicity in HHA Cells (HHA Cells; [5]): Non-Toxic

Structure (SMILES): C#C[C@]1(O)CC[C@H]2[C@@H]3CCc4cc(O)ccc4[C@H]3CC[C@@]21C [Ethinyl Estradiol]
Toxicity in HHA Cells (HHA Cells; [5]): Non-Toxic

peptide hits BMS-PTX-062 (THLE-5B-3A4 [1]): 29
peptide hits BMS-PTX-120 (THLE-5B-3A4 [1]): 35
peptide hits BMS-PTX-225 (THLE-5B-3A4 [1]): 10
peptide hits BMS-PTX-254 (THLE-5B-3A4 [1]): 14
peptide hits BMS-PTX-260 (THLE-5B-3A4 [1]): 21
peptide hits BMS-PTX-265 (THLE-5B-3A4 [1]): 49
peptide hits BMS-PTX-447 (THLE-5B-3A4 [1]): 54
peptide hits BMS-PTX-459 (THLE-5B-3A4 [1]): 24
peptide hits BMS-PTX-607 (THLE-5B-3A4 [1]): 13
peptide hits BMS-PTX-749 (THLE-5B-3A4 [1]): 87
peptide hits BMS-PTX-808 (THLE-5B-3A4 [1]): 10
peptide hits BMS-PTX-837 (THLE-5B-3A4 [1]): 15
peptide hits BMS-PTX-860 (THLE-5B-3A4 [1]): 15
peptide hits BMS-PTX-(29)147 (THLE-5B-3A4 [1]): 128
peptide hits BMS-PTX-(39)147 (THLE-5B-3A4 [1]): 24
Structure (SMILES): Cc1oc(-c2ccccc2)nc1CCOc1ccc(C[C@H](Nc2ccccc2C(=O)c2ccccc2)C(=O)O)cc1 [Farglitazar]
change in levels of BMS-PTX-265 (THLE-5B-3A4 [2]): statistically significant (p<0.05) increase
IC50 [3]: 8.61 µM
Toxicity in HHA Cells (HHA Cells; [4]): Toxic
Toxicity in HHA Cells (HHA Cells; [5]): Toxic

Structure (SMILES): CC(C)Cc1ccc(C(C)C(=O)O)cc1 (stereo not shown) [Ibuprofen]
Toxicity in HHA Cells (HHA Cells; [5]): Non-Toxic

Structure (SMILES): C1CCC(C(CC2CCCCN2)C2CCCCC2)CC1 (stereo not shown) [Perhexilene]
Toxicity in HHA Cells (HHA Cells; [5]): Toxic

Structure (SMILES): CCc1ccc(CCOc2ccc(CC3SC(=O)NC3=O)cc2)nc1 (stereo not shown) [Pioglitazone]
Toxicity in HHA Cells (HHA Cells; [5]): Non-Toxic

Structure (SMILES): CCO[C@@H](Cc1ccc(OCCN2c3ccccc3Oc3ccccc32)cc1)C(=O)O [Ragaglitazar]
Toxicity in HHA Cells (HHA Cells; [5]): Non-Toxic

Structure (SMILES): O=C(c1ccc(OCCN2CCCCC2)cc1)c1c(-c2ccc(O)cc2)sc2cc(O)ccc12 [Raloxifene]
Toxicity in HHA Cells (HHA Cells; [5]): Toxic

Structure (SMILES): CC(C)c1nc(CN(C)C(=O)N[C@H](C(=O)N[C@@H](Cc2ccccc2)C[C@H](O)[C@H](Cc2ccccc2)NC(=O)OCc2cncs2)C(C)C)cs1 [Ritonavir]
Toxicity in HHA Cells (HHA Cells; [4]): Toxic
Toxicity in HHA Cells (HHA Cells; [5]): Toxic

Structure (SMILES): CN(CCOc1ccc(CC2SC(=O)NC2=O)cc1)c1ccccn1 (stereo not shown) [Rosiglitazone]
Toxicity in HHA Cells (HHA Cells; [4]): Non-Toxic
Toxicity in HHA Cells (HHA Cells; [5]): Non-Toxic

Structure (SMILES): CC/C(=C(\c1ccccc1)c1ccc(OCCN(C)C)cc1)c1ccccc1 [Tamoxifen]
Toxicity in HHA Cells (HHA Cells; [5]): Toxic

peptide hits BMS-PTX-062 (THLE-5B-3A4 [1]): 1
peptide hits BMS-PTX-120 (THLE-5B-3A4 [1]): 3
peptide hits BMS-PTX-225 (THLE-5B-3A4 [1]): 0
peptide hits BMS-PTX-254 (THLE-5B-3A4 [1]): 1
peptide hits BMS-PTX-260 (THLE-5B-3A4 [1]): 0
peptide hits BMS-PTX-265 (THLE-5B-3A4 [1]): 8
peptide hits BMS-PTX-447 (THLE-5B-3A4 [1]): 6
peptide hits BMS-PTX-459 (THLE-5B-3A4 [1]): 8
peptide hits BMS-PTX-607 (THLE-5B-3A4 [1]): 0
peptide hits BMS-PTX-749 (THLE-5B-3A4 [1]): 6
peptide hits BMS-PTX-808 (THLE-5B-3A4 [1]): 1
peptide hits BMS-PTX-837 (THLE-5B-3A4 [1]): 8
peptide hits BMS-PTX-860 (THLE-5B-3A4 [1]): 0
peptide hits BMS-PTX-(29)147 (THLE-5B-3A4 [1]): 31
peptide hits BMS-PTX-(39)147 (THLE-5B-3A4 [1]): 1
Structure (SMILES): CCO[C@@H](Cc1ccc(OCCc2ccc(OS(C)(=O)=O)cc2)cc1)C(=O)O [Tesaglitazar]
Toxicity in HHA Cells (HHA Cells; [4]): Non-Toxic
Toxicity in HHA Cells (HHA Cells; [5]): Non-Toxic

Structure (SMILES): CN1CCN(CCCN2c3ccccc3Sc3ccc(C(F)(F)F)cc32)CC1 [Trifluoperazine]
Toxicity in HHA Cells (HHA Cells; [5]): Toxic

peptide hits BMS-PTX-062 (THLE-5B-3A4 [1]): 4
peptide hits BMS-PTX-120 (THLE-5B-3A4 [1]): 12
peptide hits BMS-PTX-225 (THLE-5B-3A4 [1]): 11
peptide hits BMS-PTX-254 (THLE-5B-3A4 [1]): 7
peptide hits BMS-PTX-260 (THLE-5B-3A4 [1]): 4
peptide hits BMS-PTX-265 (THLE-5B-3A4 [1]): 66
peptide hits BMS-PTX-447 (THLE-5B-3A4 [1]): 33
peptide hits BMS-PTX-459 (THLE-5B-3A4 [1]): 14
peptide hits BMS-PTX-607 (THLE-5B-3A4 [1]): 7
peptide hits BMS-PTX-749 (THLE-5B-3A4 [1]): 60
peptide hits BMS-PTX-808 (THLE-5B-3A4 [1]): 10
peptide hits BMS-PTX-837 (THLE-5B-3A4 [1]): 17
peptide hits BMS-PTX-860 (THLE-5B-3A4 [1]): 4
peptide hits BMS-PTX-(29)147 (THLE-5B-3A4 [1]): 67
peptide hits BMS-PTX-(39)147 (THLE-5B-3A4 [1]): 19
Structure (SMILES): Cc1c(C)c2c(c(C)c1O)CCC(C)(COc1ccc(CC3SC(=O)NC3=O)cc1)O2 (stereo not shown) [Troglitazone]
change in levels of BMS-PTX-265 (THLE-5B-3A4 [2]): statistically significant (p<0.05) increase
IC50 [3]: 32.7 µM
Toxicity in HHA Cells (HHA Cells; [4]): Toxic
Toxicity in HHA Cells (HHA Cells; [5]): Toxic
